Assay results taken from ChEMBL document CHEMBL1201862, “PubChem BioAssay data set” (2004).
Activity calls are given as the source filed them.

Key:
[1] = growth inhibition of PfATP4-mutant resistant parasites – NITD609-resistant line, SYBR Green, dry powder, dose response (AID 1159571); format: functional, cell-based;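 further: parasites synchronized at ring stage by sorbitol before testing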
[2] = Dd2 malaria parasite growth inhibition potency – SYBR Green, dry powder samples, dose response (AID 1159566); format: functional, cell-based;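 further: potency for growth inhibition with lower SYBR green DNA signal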
[3] = growth inhibition of yeast DHODH-expressing 3D7 parasites – SYBR Green, dry powder samples, dose response (AID 1159570); format: functional, cell-based;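 further: parasite growth measured after 72 hours of compound exposure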
[4] = P. falciparum Dd2 growth inhibitors, dose response, SYBR Green, cherry-picked samples (AID 1159567); format: functional, cell-based
[5] = viability loss in THP-1 monocytes – THP-1 cells, cytotoxicity control for Vif-APOBEC3G degradation inhibitor project, dose response (AID 1117359); format: functional; details: THP-1
[6] = Vero E6 cell cytotoxicity, dose response, cytotoxicity control for non-replicating M. tuberculosis project, secondary assay (AID 492998); format: functional, VeroE6; details: Vero C1008
[7] = viability of HCT116 lacking mutant beta-catenin – cell-based, human colon tumor, dose response (AID 1045); format: functional;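 further: HCT116 colon tumor cells with beta catenin knocked out; cells exposed to compound for 60 hours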
cells = format: functional
[8] = viability of PTEN-deleted HCT116 cells – cell-based, HCT116 PTEN knockout, dose response (AID 1047); format: functional;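 further: HCT116 colon tumor cells with PTEN knocked out; cells exposed to compound for 60 hours before readout; potency for loss of cell viability measured by luminescence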
[9] = THP-1 cell cytotoxicity, dose response, cytotoxicity control for non-replicating M. tuberculosis project (AID 489025); format: functional
HEK293 = assay: cells; format: functional, cell-based; details: Homo sapiens
[10] = molecular target: T1, Nuclear receptor subfamily 0 group B member 1 (Homo sapiens, UniProt P51843); assay: Luminescence-based cell-based high throughput dose response assay for inhibitors of the orphan nuclear receptor subfamily 0, group B, member 1 (DAX1; NR0B1). [Related pubchem assays (depositor defined):AID504766, AID504790]; format: functional
T1 sequence (P51843 whole entry): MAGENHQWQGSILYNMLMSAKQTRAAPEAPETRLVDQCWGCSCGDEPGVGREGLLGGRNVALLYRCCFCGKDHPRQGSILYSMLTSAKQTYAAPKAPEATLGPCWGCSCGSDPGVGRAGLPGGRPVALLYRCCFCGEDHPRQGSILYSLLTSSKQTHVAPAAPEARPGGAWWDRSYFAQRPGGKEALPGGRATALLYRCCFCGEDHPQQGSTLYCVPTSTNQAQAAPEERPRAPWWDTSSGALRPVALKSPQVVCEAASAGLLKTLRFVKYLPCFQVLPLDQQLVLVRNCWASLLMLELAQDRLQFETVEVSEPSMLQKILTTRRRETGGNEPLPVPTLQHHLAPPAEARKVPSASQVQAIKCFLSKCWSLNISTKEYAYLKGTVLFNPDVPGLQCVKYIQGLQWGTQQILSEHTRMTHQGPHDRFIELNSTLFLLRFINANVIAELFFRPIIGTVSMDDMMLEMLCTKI

[11] = molecular target: T2, Rac GTPase-activating protein 1 (Homo sapiens, UniProt Q9H0H5); assay: blockers of MgcRacGAP-driven Rac1 GTP hydrolysis – biochemical, ADP Hunter fluorescence, primary and confirmatory, confirmation (AID 624330); format: functional
T2 sequence (Q9H0H5 whole entry): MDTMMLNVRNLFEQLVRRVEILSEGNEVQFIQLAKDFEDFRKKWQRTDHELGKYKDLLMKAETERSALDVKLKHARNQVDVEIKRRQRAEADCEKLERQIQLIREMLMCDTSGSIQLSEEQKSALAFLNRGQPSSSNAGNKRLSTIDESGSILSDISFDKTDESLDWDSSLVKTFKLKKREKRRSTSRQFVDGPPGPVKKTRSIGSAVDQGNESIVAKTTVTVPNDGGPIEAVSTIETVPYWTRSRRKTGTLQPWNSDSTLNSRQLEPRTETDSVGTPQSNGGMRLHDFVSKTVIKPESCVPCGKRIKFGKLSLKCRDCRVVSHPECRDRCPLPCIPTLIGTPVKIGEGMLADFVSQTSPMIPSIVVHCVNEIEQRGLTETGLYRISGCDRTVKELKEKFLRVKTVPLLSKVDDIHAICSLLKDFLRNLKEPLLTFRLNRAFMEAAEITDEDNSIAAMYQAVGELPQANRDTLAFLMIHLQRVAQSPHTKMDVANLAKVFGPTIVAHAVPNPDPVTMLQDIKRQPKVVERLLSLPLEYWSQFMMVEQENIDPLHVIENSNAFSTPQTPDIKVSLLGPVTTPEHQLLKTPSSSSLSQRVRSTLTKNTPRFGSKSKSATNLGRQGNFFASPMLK

Aminopeptidase N = molecular target: T3, Aminopeptidase N (Plasmodium falciparum FcB1/Columbia, UniProt O96935); assay: malaria alanyl aminopeptidase activity blockers – biochemical, fluorogenic H-Leu-NHMec substrate, 1536-well (AID 1445); parameters: species or system Plasmodium falciparum 3D7, 3D7
T3 sequence (O96935 whole entry): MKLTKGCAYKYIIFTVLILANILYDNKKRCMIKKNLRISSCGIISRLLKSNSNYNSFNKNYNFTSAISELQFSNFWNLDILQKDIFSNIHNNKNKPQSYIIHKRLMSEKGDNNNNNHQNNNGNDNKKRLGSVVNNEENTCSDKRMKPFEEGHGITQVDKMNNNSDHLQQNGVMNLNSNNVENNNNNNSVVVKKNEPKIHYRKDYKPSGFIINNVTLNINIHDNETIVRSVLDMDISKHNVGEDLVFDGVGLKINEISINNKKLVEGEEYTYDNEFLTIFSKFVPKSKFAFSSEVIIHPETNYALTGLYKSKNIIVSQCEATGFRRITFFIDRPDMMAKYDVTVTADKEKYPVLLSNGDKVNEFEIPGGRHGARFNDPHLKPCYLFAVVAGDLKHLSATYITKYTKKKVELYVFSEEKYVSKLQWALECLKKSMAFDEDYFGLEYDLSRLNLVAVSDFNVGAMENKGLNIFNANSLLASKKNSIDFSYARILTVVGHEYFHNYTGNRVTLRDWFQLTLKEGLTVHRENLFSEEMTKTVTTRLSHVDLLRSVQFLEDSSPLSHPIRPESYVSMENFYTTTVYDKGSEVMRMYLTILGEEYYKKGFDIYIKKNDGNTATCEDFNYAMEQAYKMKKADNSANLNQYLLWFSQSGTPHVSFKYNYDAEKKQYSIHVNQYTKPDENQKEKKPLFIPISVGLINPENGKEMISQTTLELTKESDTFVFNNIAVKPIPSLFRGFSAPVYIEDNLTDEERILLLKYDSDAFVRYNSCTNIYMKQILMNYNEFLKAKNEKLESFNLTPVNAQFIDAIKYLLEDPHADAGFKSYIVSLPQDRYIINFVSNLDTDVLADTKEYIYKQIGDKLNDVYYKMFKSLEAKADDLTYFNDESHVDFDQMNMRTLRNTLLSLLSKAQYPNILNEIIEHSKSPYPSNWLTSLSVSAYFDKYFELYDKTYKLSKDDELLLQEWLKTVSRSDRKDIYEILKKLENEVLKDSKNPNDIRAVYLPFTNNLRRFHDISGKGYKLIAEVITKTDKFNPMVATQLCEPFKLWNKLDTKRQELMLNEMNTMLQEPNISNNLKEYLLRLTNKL

[12] = molecular target: Peroxisome proliferator-activated receptor gamma/Nuclear receptor coactivator 3 (Homo sapiens, UniProt P37231); assay: TR-FRET dose response biochemical High Throughput Screening assay for agonists of the steroid receptor coactivator 3 (SRC-3) recruitment by the peroxisome proliferator-activated receptor gamma (PPAR gamma): non-selective agonists. [Related pubchem assays: 1301 (Confirmation screen.), 1048 (Primary screen.)]; format: functional
[13] = molecular target: Peroxisome proliferator-activated receptor gamma/Nuclear receptor coactivator 2 (Homo sapiens, UniProt P37231); assay: (§1) TR-FRET dose response biochemical High Throughput Screening assay for agonists of the steroid receptor coactivator 2 (SRC-2) recruitment by the peroxisome proliferator-activated receptor gamma (PPAR gamma): non-selective agonists. [Related pubchem assays: 1297, 1032 ]; format: functional
[14] = molecular target: Peroxisome proliferator-activated receptor gamma/Nuclear receptor coactivator 1 (Homo sapiens, UniProt P37231); assay: as §1, with “1 (SRC-1)” for “2 (SRC-2)”, “assays (depositor defined):AID1300, AID1808, AID504735, AID631]” for “assays: 1297, 1032 ]”; format: protein assay
[15] = molecular target: FAD-linked sulfhydryl oxidase ALR (Homo sapiens, UniProt P55789); assay: ALR-catalysed DTT oxidation blockers – biochemical, H2O2 detection, luminescence, cherry-pick, dose response (AID 493248)
[16] = microbe, parasite or virus in culture; format: functional; details: Mycobacterium tuberculosis

FAD-linked sulfhydryl oxidase ALR, sequence (P55789 whole entry): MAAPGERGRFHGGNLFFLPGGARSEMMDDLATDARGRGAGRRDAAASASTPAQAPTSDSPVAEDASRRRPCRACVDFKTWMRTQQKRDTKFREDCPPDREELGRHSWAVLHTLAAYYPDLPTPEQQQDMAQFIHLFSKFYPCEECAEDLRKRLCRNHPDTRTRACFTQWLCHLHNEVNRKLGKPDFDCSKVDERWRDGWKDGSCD
Peroxisome proliferator-activated receptor gamma/Nuclear receptor coactivator 2, sequence (P37231 whole entry): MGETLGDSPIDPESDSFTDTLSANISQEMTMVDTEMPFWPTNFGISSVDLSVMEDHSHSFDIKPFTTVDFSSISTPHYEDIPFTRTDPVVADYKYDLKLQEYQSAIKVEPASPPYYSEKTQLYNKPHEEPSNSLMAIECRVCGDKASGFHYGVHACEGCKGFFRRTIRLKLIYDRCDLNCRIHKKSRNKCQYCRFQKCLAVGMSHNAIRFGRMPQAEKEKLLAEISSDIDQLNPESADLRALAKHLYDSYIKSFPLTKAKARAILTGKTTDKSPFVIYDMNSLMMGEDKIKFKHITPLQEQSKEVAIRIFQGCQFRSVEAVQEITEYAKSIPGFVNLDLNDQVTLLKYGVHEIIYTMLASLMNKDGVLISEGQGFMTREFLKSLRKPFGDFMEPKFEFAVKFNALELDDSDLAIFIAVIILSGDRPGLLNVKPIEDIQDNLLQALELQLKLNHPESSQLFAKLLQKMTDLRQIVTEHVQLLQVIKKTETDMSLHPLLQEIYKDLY
Peroxisome proliferator-activated receptor gamma/Nuclear receptor coactivator 2, sequence (Q15596 whole entry, further chain): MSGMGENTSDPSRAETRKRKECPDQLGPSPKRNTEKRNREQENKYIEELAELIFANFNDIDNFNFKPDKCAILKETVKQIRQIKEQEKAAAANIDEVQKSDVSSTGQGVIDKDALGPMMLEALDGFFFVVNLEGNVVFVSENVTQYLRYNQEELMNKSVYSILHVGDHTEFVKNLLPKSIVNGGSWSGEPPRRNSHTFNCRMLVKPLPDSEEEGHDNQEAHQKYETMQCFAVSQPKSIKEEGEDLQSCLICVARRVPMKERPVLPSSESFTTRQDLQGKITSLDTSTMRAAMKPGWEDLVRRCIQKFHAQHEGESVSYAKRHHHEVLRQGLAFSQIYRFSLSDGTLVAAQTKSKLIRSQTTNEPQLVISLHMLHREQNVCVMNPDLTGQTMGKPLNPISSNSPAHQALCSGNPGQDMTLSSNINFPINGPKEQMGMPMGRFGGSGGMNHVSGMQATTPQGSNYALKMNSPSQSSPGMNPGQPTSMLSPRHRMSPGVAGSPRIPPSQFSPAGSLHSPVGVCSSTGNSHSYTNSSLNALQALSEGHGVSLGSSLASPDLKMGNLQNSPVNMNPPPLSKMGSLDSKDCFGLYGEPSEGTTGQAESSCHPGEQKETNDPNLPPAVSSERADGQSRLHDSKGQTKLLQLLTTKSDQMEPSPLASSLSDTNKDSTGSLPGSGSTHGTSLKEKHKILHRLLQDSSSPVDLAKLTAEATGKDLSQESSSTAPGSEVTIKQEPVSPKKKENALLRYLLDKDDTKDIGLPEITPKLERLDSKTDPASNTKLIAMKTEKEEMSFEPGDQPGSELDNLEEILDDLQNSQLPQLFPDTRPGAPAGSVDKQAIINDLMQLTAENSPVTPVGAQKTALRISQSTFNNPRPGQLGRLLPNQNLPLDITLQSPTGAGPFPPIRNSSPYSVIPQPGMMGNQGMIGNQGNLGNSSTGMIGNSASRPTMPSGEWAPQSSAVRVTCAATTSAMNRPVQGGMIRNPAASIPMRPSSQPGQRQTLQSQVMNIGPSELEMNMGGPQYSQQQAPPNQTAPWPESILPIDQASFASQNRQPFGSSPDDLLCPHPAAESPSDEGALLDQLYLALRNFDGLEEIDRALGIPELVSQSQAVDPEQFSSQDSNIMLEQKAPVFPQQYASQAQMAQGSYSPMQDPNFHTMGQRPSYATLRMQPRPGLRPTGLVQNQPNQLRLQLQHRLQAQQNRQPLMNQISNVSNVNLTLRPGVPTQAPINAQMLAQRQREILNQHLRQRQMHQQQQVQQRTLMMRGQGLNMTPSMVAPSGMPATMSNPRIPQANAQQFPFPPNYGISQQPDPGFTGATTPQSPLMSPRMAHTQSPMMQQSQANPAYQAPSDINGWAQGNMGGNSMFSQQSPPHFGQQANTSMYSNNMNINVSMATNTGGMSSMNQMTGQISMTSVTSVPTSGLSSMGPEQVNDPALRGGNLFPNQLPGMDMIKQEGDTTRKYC
Peroxisome proliferator-activated receptor gamma/Nuclear receptor coactivator 3, sequence (P37231 whole entry): as the sequence (P37231 whole entry) above
Peroxisome proliferator-activated receptor gamma/Nuclear receptor coactivator 3, sequence (Q9Y6Q9 whole entry, further chain): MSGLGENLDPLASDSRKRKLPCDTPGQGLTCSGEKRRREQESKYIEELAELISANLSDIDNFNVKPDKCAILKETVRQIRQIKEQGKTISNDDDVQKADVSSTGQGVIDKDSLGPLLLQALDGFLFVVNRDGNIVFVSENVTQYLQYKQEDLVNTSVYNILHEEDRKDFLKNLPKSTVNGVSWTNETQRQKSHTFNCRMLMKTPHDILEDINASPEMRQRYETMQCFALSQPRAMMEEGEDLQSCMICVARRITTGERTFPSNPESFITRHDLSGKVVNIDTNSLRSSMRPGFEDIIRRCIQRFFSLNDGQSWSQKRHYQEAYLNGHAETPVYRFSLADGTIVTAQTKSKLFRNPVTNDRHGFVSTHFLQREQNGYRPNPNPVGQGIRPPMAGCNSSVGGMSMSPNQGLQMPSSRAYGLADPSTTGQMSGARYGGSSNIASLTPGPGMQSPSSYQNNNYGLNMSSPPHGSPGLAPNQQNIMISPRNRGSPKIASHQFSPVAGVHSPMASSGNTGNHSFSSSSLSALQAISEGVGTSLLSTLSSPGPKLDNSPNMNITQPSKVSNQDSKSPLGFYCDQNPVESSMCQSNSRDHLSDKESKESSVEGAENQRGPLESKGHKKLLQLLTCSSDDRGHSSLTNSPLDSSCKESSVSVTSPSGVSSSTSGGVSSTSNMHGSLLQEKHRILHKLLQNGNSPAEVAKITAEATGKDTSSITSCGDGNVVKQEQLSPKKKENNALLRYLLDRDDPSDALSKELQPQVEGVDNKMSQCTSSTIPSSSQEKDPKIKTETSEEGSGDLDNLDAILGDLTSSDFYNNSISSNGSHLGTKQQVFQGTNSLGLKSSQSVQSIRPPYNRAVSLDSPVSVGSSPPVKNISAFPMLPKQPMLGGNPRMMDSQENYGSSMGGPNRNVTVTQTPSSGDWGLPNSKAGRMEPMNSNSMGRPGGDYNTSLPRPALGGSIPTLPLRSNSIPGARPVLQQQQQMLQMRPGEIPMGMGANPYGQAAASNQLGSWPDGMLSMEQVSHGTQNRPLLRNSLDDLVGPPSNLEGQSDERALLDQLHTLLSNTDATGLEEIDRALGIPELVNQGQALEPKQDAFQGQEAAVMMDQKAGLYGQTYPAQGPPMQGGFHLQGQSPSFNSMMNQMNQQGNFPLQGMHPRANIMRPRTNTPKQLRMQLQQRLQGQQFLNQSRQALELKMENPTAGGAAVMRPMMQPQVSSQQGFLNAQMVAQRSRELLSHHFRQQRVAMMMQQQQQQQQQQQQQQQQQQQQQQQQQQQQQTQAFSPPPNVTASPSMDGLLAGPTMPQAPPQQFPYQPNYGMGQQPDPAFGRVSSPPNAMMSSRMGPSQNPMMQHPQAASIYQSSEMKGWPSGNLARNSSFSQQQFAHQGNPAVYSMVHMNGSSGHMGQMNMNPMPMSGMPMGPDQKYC

With `O=C(Nc1ccccc1)N1CCCCN2[C@@H](CO)[C@H](c3ccc(C#Cc4cccnc4)cc3)[C@@H]2C1` the AC50 [1] was 0.573 µM (active), the AC50 [2] was 0.552 µM (active) and the AC50 [3] was 0.476 µM (active). For the same molecule, the AC50 [4] was 0.633 µM (active).
With `O=C(COC(=O)Cc1ccc(Cl)cc1)NCc1ccco1` the CC50 [5] was > 40 µM (active).
In the case of `Cc1cc(NC(=O)C2CCCCC2)n(-c2nc3ccccc3[nH]2)n1`, the CC50 [6] was > 20 µM (active), the EC50 [7] was 13.6 µM (active) and the IC50 (cells) was 5.56 µM (active). The EC50 [8] was 16.9 µM (active) and the CC50 [9] was > 40 µM (active).
With `C#CCOC(=O)C[N+](C)(C)CC#Cc1ccccc1` the IC50 (HEK293) was > 67.6 µM (inactive) and the IC50 [10] was > 67.6 µM (inactive).
With `COc1ccccc1NC(=O)N1CCCC(C(=O)Nc2cccc(C)c2C)C1` (stereo not given) the IC50 (HEK293) was > 67.6 µM (inactive) and the IC50 [10] was > 67.6 µM (inactive).
For `Nc1ccc(N=Nc2ccc(O)cc2)c(N)n1`, the CC50 [5] was 25.8 µM (active) and the IC50 [11] was 8.44 µM (active).
For `CCc1c(C)c2ccc(O)c(CN(C)C)c2oc1=O`, the IC50 (Aminopeptidase N) was 28.9 µM (active).
With `COc1ccc(Br)cc1-c1nc(CCl)cs1` the EC50 [12] was > 79.4 µM (not active), the EC50 [13] was 5.52 µM (active) and the EC50 [14] was 9.93 µM (active). For the same molecule, the AC50 [15] was 14.1 µM (active).
With `O=C(CCN1C(=O)/C(=C/c2ccccc2Cl)SC1=S)N1CCCC1` the CC50 [6] was 11.4 µM (active), the IC50 (cells) was 28.4 µM (active) and the CC50 [9] was 19.7 µM (active). For the same molecule, the CC50 [16] was 8.2 µM (active).
